These results are taken from article PMC5120670 (European journal of medicinal chemistry, 2016).

Series [1] concerns the target T1, T. brucei methionyl-tRNA synthetase (TbMetRS) (Trypanosoma brucei brucei, UniProt Q38C91).
T1 sequence (Q38C91 1-773): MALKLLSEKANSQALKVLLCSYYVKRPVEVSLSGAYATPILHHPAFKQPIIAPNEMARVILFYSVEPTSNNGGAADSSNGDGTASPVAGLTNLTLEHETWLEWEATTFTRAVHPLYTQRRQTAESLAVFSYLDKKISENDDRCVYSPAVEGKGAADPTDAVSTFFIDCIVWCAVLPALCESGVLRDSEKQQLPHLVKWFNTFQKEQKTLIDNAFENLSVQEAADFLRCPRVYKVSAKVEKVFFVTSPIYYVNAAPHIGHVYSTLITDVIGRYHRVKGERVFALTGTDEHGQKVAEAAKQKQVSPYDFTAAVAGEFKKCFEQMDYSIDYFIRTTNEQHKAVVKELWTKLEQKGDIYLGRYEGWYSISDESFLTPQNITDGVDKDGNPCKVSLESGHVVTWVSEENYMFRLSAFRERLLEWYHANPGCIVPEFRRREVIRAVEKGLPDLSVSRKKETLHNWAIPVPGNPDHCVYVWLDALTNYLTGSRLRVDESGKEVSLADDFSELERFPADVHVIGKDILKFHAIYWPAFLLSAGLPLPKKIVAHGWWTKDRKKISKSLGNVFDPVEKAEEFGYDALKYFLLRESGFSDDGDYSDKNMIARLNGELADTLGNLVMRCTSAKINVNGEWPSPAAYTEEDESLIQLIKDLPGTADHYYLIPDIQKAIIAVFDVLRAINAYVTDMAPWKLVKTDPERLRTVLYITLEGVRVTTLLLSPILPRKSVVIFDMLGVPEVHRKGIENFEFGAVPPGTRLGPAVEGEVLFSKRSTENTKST
As to the kind of experiment: Enzyme inhibition assay. Type of series: biochemical.

Series [2] concerns T. brucei (bloodstream form strain 427). Put plainly: T. brucei growth inhibition assay. It counts as cell-based, Trypanosoma brucei. The following applies: for cellular activity improvement compared to 3: relative to compound 3.
The test system of series [3] is hepatocellular carcinoma cell line (Hep G2). As to the kind of experiment: Mammalian cell growth inhibition assay, Hep G2. It counts as cell-based. Conditions: Homo sapiens, HepG2, 48 h, read-out: Hep G2 EC50.
The nature of series [4]: PK studies in mice. Type of series: in vivo. The following applies: for AUC: mice, oral administration at 50 mg/kg.
Series [5] relates to human lymphoblast cell line (CRL-8155). As to the kind of experiment: Mammalian cell growth inhibition assay, CRL-8155.
Series [6] can be described thus: Distribution of compounds between mouse plasma and brain. It counts as in vivo. Conditions: mice, 5 mg/kg IP, 60 min after injection.

Each structure is given as a SMILES string. pEC50, pIC50: −log10 of the molar value.

For `CN(CCNCc1cc(Cl)cc(Cl)c1)c1nc2nc(Cl)ccc2[nH]1` [Compound 31, N1-(5-chloro-1H-imidazo[4,5-b]pyridin-2-yl)-N2-(3,5-dichlorobenzyl)-N1-methylethane-1,2-diamine], in series [1], the pIC50 is > 7.30. The pEC50 in series [2] (Trypanosoma brucei, 48 h) was 7.66; in series [3], 4.41; in series [5] (Homo sapiens, CRL8155, 48 h, read-out: CRL-8155 EC50) it was 4.65. For the same compound, the “lower EC50 compared to compound 29” value in series [2] (relative to compound 29) is given as ~ 3 fold. In series [4], this compound showed an AUC of 952 min*µ mol/L. The compound further registered a Cmax in series [4] (mouse, whole blood, po, 50 mg/kg) of 9.7 µM. The same compound displayed a selectivity index in series [5] (mammalian cells versus T. brucei) of 1027.

With `O=C(Cc1cc(Cl)cc(Cl)c1)N1CCCC(c2nc3nc(Cl)ccc3[nH]2)C1` (stereo not drawn) [Compound 7, 1-(3-(5-chloro-1H-imidazo[4,5-b]pyridin-2-yl)piperidin-1-yl)-2-(3,5-dichlorophenyl)ethanone], in series [1], the pIC50 was > 7.30. The “cellular activity improvement compared to 3” value in series [2] is listed as “approximately 5 fold”.

For the compound `Clc1cc(Cl)cc(CNC2CCCN(c3nc4nc(Cl)ccc4[nH]3)C2)c1` (stereo not drawn) [Compound 14, 1-(5-chloro-1H-imidazo[4,5-b]pyridin-2-yl)-N-(3,5-dichlorobenzyl)piperidin-3-amine], the negative logarithm of the IC50 (pIC50) in series [1] was > 7.30. Moreover, the “lower EC50 compared to compound 12” value in series [2] (relative to compound 12) was ~ 4 fold.

With `Clc1cc(Cl)cc(CN[C@H]2CCCN(c3nc4nc(Cl)ccc4[nH]3)C2)c1` [Compound 16, (S)-1-(5-chloro-1H-imidazo[4,5-b]pyridin-2-yl)-N-(3,5-dichlorobenzyl) piperidin-3-amine], the pIC50 in series [1] is > 7.30. Moreover, the “lower EC50 compared to R-isomer 15” value in series [2] (relative to compound 15) was > 25 fold. In series [4], this compound displayed an AUC of 6223 min*µ mol/L. The brain levels result in series [6] was “nearly undetectable”.

As for `Clc1cc(Cl)cc(CCN2CCCC(c3nc4nc(Cl)ccc4[nH]3)C2)c1` (stereo not drawn) [Compound 10, 5-chloro-2-(1-(3,5-dichlorophenethyl)piperidin-3-yl)-1H-imidazo[4,5-b]pyridine], the “decreased potency compared to 6” value in series [2] (relative to compound 6) was “around 3 fold”.

For the compound `O=C(Cc1cc(Cl)cc(Cl)c1)N1CCCC(c2nc3cc(Cl)ccc3[nH]2)C1` (stereo not drawn) [Compound 6, 1-(3-(5-chloro-1H-benzo[d]imidazol-2-yl)piperidin-1-yl)-2-(3,5-dichlorophenyl) ethanone], the “cellular activity improvement compared to 3” value in series [2] is on record as “approximately 5 fold”.

With `Clc1cc(Cl)cc(CN[C@H]2CCN(c3nc4ccc(Cl)nc4[nH]3)C2)c1` [Compound 24, (S)-1-(5-chloro-3H-imidazo[4,5-b]pyridin-2-yl)-N-(3,5-dichlorobenzyl) pyrrolidin-3-amine], the negative logarithm of the IC50 (pIC50) in series [1] was > 7.30. For the same compound, the “more potent than the R-isomer 23” value in series [2] (relative to compound 23) is recorded as ~ 6 fold.

In the case of `Clc1cc(Cl)cc(CNC2CCCC(c3nc4nc(Cl)ccc4[nH]3)C2)c1` (stereo not drawn) [Compound 12, 3-(5-chloro-1H-imidazo[4,5-b]pyridin-2-yl)-N-(3,5-dichlorobenzyl) cyclohexanamine], the “lower EC50 compared to 6” value in series [2] (relative to compound 6) amounted to 4 fold.
